Patent US9695133B2, “Quinazolinone-based oncogenic-RAS-selective lethal compounds and their use” (THE TRUSTEES OF COLUMBIA UNIVERSITY IN THE CITY OF NEW YORK, priority 2012, dated 2017)

Tested on: HT-1080 cells
Experiment: Metabolite profiling (LC-MS/MS) upon erastin treatment
Assay type: cell-based, human
Conditions: 5 μg/mL erastin 5 h
Description: 2 million HT-1080 cells were seeded in 10 cm culture dishes. […] 4 mL of cold 80% methanol was added to the cell monolayer to extract polar metabolites using a cell scraper. The cell lysate/methanol mixture was transferred to a 15 mL tube and centrifuged at 2,000×g at 4° C. for 10 minutes to pellet debris and proteins. The supernatant was transferred to a new tube and stored at −80° C. for liquid chromatography-mass spectrometry/mass spectrometry (LC-MS/MS) analysis. For lipid extract preparation, 3 mL of cold 100% isopropanol was added to the cell monolayer to scrape out cells. The resulting cell lysate/isopropanol mixture was transferred to a new 15 mL tube and centrifuged at 2,000×g at 4° C. for 10 minutes. The cleared supernatant was transferred to a new tube and stored at −20° C. for LC-MS/MS analysis.
The metabolite extract was subjected to LC-MS/MS analysis to determine the quantity of each metabolite in each sample.

SMILES: CCOc1ccccc1-n1c(C(C)N2CCN(C(=O)COc3ccc(Cl)cc3)CC2)nc2ccccc2c1=O (stereo not drawn) [erastin]
- C36:1 DAG Erastin/DMSO: 0.9334
- C36:1 DAG log2 (Erastin/DMSO): −0.09938
- C36:1 PC Erastin/DMSO: 0.6286
- C36:1 PC log2 (Erastin/DMSO): −0.6697
- C36:1 PE Erastin/DMSO: 0.9953
- C36:1 PE log2 (Erastin/DMSO): −0.006813
- C36:2 DAG Erastin/DMSO: 0.9163
- C36:2 DAG log2 (Erastin/DMSO): −0.1261
- C36:2 PC Erastin/DMSO: 0.8729
- C36:2 PC log2 (Erastin/DMSO): −0.1962
- C36:2 PE Erastin/DMSO: 0.9352
- C36:2 PE log2 (Erastin/DMSO): −0.09672
- C36:2 PI Erastin/DMSO: 1.021
- C36:2 PI log2 (Erastin/DMSO): 0.02948
- C36:3 DAG Erastin/DMSO: 1.092
- C36:3 DAG log2 (Erastin/DMSO): 0.1266
- C36:3 PC Erastin/DMSO: 0.9251
- C36:3 PC log2 (Erastin/DMSO): −0.1124
- C36:4 PC Erastin/DMSO: 0.9027
- C36:4 PC log2 (Erastin/DMSO): −0.1477
- C36:4 PI Erastin/DMSO: 1.395
- C36:4 PI log2 (Erastin/DMSO): 0.4801
- C38:2 PC Erastin/DMSO: 0.8405
- C38:2 PC log2 (Erastin/DMSO): −0.2507
- C38:3 PC Erastin/DMSO: 0.6597
- C38:3 PC log2 (Erastin/DMSO): −0.6001
- C38:4 PC Erastin/DMSO: 0.6814
- C38:4 PC log2 (Erastin/DMSO): −0.5533
- C38:4 PI Erastin/DMSO: 0.9823
- C38:4 PI log2 (Erastin/DMSO): −0.02583
- C38:5 PC Erastin/DMSO: 0.8836
- C38:5 PC log2 (Erastin/DMSO): −0.1786
- C38:6 PC Erastin/DMSO: 0.9708
- C38:6 PC log2 (Erastin/DMSO): −0.0428
- C44:0 TAG Erastin/DMSO: 0.9683
- C44:0 TAG log2 (Erastin/DMSO): −0.04648
- C44:1 TAG Erastin/DMSO: 1.639
- C44:1 TAG log2 (Erastin/DMSO): 0.7127
- C46:0 TAG Erastin/DMSO: 0.9424
- C46:0 TAG log2 (Erastin/DMSO): −0.08557
- C46:1 TAG Erastin/DMSO: 1.171
- C46:1 TAG log2 (Erastin/DMSO): 0.2276
- C46:2 TAG Erastin/DMSO: 1.542
- C46:2 TAG log2 (Erastin/DMSO): 0.6247
- C48:0 TAG Erastin/DMSO: 1.098
- C48:0 TAG log2 (Erastin/DMSO): 0.1354
- C48:1 TAG Erastin/DMSO: 1.059
- C48:1 TAG log2 (Erastin/DMSO): 0.08209
- C48:2 TAG Erastin/DMSO: 1.121
- C48:2 TAG log2 (Erastin/DMSO): 0.1647
- C48:3 TAG Erastin/DMSO: 1.52
- C48:3 TAG log2 (Erastin/DMSO): 0.6042
- C50:0 TAG Erastin/DMSO: 0.9625
- C50:0 TAG log2 (Erastin/DMSO): −0.05513
- C50:1 TAG Erastin/DMSO: 1.011
- C50:1 TAG log2 (Erastin/DMSO): 0.01634
- C50:2 TAG Erastin/DMSO: 1.073
- C50:2 TAG log2 (Erastin/DMSO): 0.1023
- C50:3 TAG Erastin/DMSO: 1.241
- C50:3 TAG log2 (Erastin/DMSO): 0.3115
- C50:4 TAG Erastin/DMSO: 1.682
- C50:4 TAG log2 (Erastin/DMSO): 0.7502
- C50:5 TAG Erastin/DMSO: 1.277
- C50:5 TAG log2 (Erastin/DMSO): 0.3528
- C52:0 TAG Erastin/DMSO: 1.041
- C52:0 TAG log2 (Erastin/DMSO): 0.05755
- C52:1 TAG Erastin/DMSO: 0.897
- C52:1 TAG log2 (Erastin/DMSO): −0.1568
- C52:2 TAG Erastin/DMSO: 0.9964
- C52:2 TAG log2 (Erastin/DMSO): −0.005196
- C52:3 TAG Erastin/DMSO: 1.124
- C52:3 TAG log2 (Erastin/DMSO): 0.168
- C52:4 TAG Erastin/DMSO: 1.305
- C52:4 TAG log2 (Erastin/DMSO): 0.3844
- C52:5 TAG Erastin/DMSO: 1.279
- C52:5 TAG log2 (Erastin/DMSO): 0.355
- C52:6 TAG Erastin/DMSO: 1.602
- C52:6 TAG log2 (Erastin/DMSO): 0.6796
- C54:1 TAG Erastin/DMSO: 0.8628
- C54:1 TAG log2 (Erastin/DMSO): −0.2129
- C54:2 TAG Erastin/DMSO: 0.8696
- C54:2 TAG log2 (Erastin/DMSO): −0.2016
- C54:3 TAG Erastin/DMSO: 0.9692
- C54:3 TAG log2 (Erastin/DMSO): −0.04517
- C54:4 TAG Erastin/DMSO: 1.178
- C54:4 TAG log2 (Erastin/DMSO): 0.2363
- C54:5 TAG Erastin/DMSO: 1.315
- C54:5 TAG log2 (Erastin/DMSO): 0.3952
- C54:6 TAG Erastin/DMSO: 1.267
- C54:6 TAG log2 (Erastin/DMSO): 0.3411
- C54:7 TAG Erastin/DMSO: 1.062
- C54:7 TAG log2 (Erastin/DMSO): 0.08689
- C54:8 TAG Erastin/DMSO: 0.9067
- C54:8 TAG log2 (Erastin/DMSO): −0.1413
- C54:9 TAG Erastin/DMSO: 1.331
- C54:9 TAG log2 (Erastin/DMSO): 0.4129
- C54:10 TAG Erastin/DMSO: 0.8851
- C54:10 TAG log2 (Erastin/DMSO): −0.1761
- C56:2 TAG Erastin/DMSO: 0.9703
- C56:2 TAG log2 (Erastin/DMSO): −0.04354
- C56:3 TAG Erastin/DMSO: 0.8103
- C56:3 TAG log2 (Erastin/DMSO): −0.3035
- C56:4 TAG Erastin/DMSO: 0.9505
- C56:4 TAG log2 (Erastin/DMSO): −0.07326
- C56:5 TAG Erastin/DMSO: 1.134
- C56:5 TAG log2 (Erastin/DMSO): 0.1814
- C56:6 TAG Erastin/DMSO: 1.047
- C56:6 TAG log2 (Erastin/DMSO): 0.06693
- C56:7 TAG Erastin/DMSO: 1.062
- C56:7 TAG log2 (Erastin/DMSO): 0.08653
- C56:8 TAG Erastin/DMSO: 1.178
- C56:8 TAG log2 (Erastin/DMSO): 0.2368
- C56:9 TAG Erastin/DMSO: 0.9865
- C56:9 TAG log2 (Erastin/DMSO): −0.01961
- C56:10 TAG Erastin/DMSO: 0.9129
- C56:10 TAG log2 (Erastin/DMSO): −0.1315
- C58:6 TAG Erastin/DMSO: 1.047
- C58:6 TAG log2 (Erastin/DMSO): 0.06641
- C58:7 TAG Erastin/DMSO: 1.071
- C58:7 TAG log2 (Erastin/DMSO): 0.09945
- C58:8 TAG Erastin/DMSO: 1.118
- C58:8 TAG log2 (Erastin/DMSO): 0.1603
- C58:9 TAG Erastin/DMSO: 1.176
- C58:9 TAG log2 (Erastin/DMSO): 0.2336
- CMP Erastin/DMSO: 0.9376
- CMP log2 (Erastin/DMSO): −0.09295
- DHAP Erastin/DMSO: 1.227
- DHAP log2 (Erastin/DMSO): 0.2955
- F1P Erastin/DMSO: 0.9652
- F1P log2 (Erastin/DMSO): −0.05103
- F16DP/F26DP/G16DP Erastin/DMSO: 1.303
- F16DP/F26DP/G16DP log2 (Erastin/DMSO): 0.3816
